Test results: US9884823B2, “Oxime ether acetate compound, preparation method therefor and weeding application thereof” (ZHEJIANG UNIVERSITY OF TECHNOLOGY, priority 2014, dated 2018)
Read-outs that look alike come from different tables or passages of the source.

Legend:
Cucumber = assay: Culture dish method (general screening); format: in vivo; conditions: 100 mg/L, 7 days
Text: (§3) Culture dish method (general screening): The test targets were radish, cucumber, rape, wheat, sorghum and barnyard grass; the seeds of wheat, sorghum and radish were germinated in advance, and the uniform emerge-germinating seeds were used in the test.

Barnyardgrass = assay: Culture dish method (general screening); format: in vivo, barnyard grass; conditions: 100 mg/L, 7 days
Text: as §3

[1] = test system: grass weeds such as crabgrass, barnyard grass, dog point; conditions: 150 g a.i./ha; for activity for grass targets such as crabgrass and dog point: 30 days after administration, Table 9 summary; for activity on grass weeds such as crabgrass, dog point: postemergence spraying, 30 days
Text: (§1) The raw drug which was selected from the compounds in table 1 was weighed using an analytical balance (0.0001 g), and dissolved in DMF containing 1 wt % Tween-80 emulsifier to prepare a mother liquor of raw drug with a mass concentration of 1.0˜5.0%, and then diluted with distilled water, to prepare preparations at desired concentrations according to the ratio of ingredients in Examples 8, 9 and 10.
(§2) The test targets were mustard, small quinoa, Abutilon, amaranthus retroflexus, Eclipta prostrata, crabgrass, dog point. A pot with a diameter of 7.5 cm was used, filled with composite soil (garden soil:nursery matrix, 1:2, v/v) to ¾ of the pot, then the above […] kinds of weeds targets were directly seeded (germination rate ≧85%), covered with soil at a thickness of 0.2 cm. When the weeds grew to 3-leaf stage, pre-emergence soil treatment for weeds planting, and then spraying was performed.

Small quinoa = conditions: 150 g a.i./ha, 30 days, Table 9
Text: as §1, §2

[2] = test system: broadleaf weeds such as mustard, small quinoa, Abutilon, Amaranthus retroflexus and Eclipta prostrate; conditions: 150 g a.i./ha; for herbicidal activity on broadleaf weeds targets: 30 days after administration, Table 9 summary; for activity on the growth of broadleaf weeds: postemergence spraying, 30 days, vs clear water control
Text: as §1, §2

Chinese sorghum = assay: Culture dish method (general screening); format: in vivo; conditions: 100 mg/L, 7 days
Text: as §3

Radish = assay: Culture dish method (general screening); format: in vivo; conditions: 100 mg/L, 7 days
Text: as §3

Rape = assay: Culture dish method (general screening); format: in vivo; conditions: 100 mg/L, 7 days
Text: as §3

amaranthus retroflexus = assay: Potted plants live body test; format: in vivo; conditions: 150 g a.i./ha, 30 days, Table 9
Text: as §1, §2

Crabgrass = assay: Potted plants live body test; format: in vivo; conditions: 150 g a.i./ha, 30 days, Table 9
Text: as §1, §2

Eclipta prostrata = assay: Potted plants live body test; format: in vivo; conditions: 150 g a.i./ha, 30 days, Table 9
Text: as §1, §2

Abutilon = assay: Potted plants live body test; format: in vivo; conditions: 150 g a.i./ha, 30 days, Table 9
Text: as §1, §2

Dog point = assay: Potted plants live body test; format: in vivo; conditions: 150 g a.i./ha, 30 days, Table 9
Text: as §1, §2

Mustard = conditions: 150 g a.i./ha, 30 days, Table 9
Wheat = assay: Culture dish method (general screening); format: in vivo; conditions: 100 mg/L, 7 days
Text: as §3

Compound	inhibition rate, Cucumber Root (Cucumber) [%]	inhibition rate, Cucumber Stem (Cucumber) [%]	inhibition rate, Barnyardgrass Root (Barnyardgrass) [%]	inhibition rate, Barnyardgrass Stem (Barnyardgrass) [%]	inhibition rate, Chinese sorghum Root (Chinese sorghum) [%]	inhibition rate, Chinese sorghum Stem (Chinese sorghum) [%]	inhibition rate, Radish Root (Radish) [%]	inhibition rate, Radish Stem (Radish) [%]	inhibition rate, Rape Root (Rape) [%]	inhibition rate, Rape Stem (Rape) [%]	inhibition rate, Wheat Root (Wheat) [%]	inhibition rate, Wheat Stem (Wheat) [%]	further results
CON=C(C(=O)OC)c1ccccc1COc1cccc(-c2ncc(Cl)cc2Cl)c1 [Compound 98]	50	80	60	20	50	30	50	80	50	80	20	0	activity for grass targets such as crabgrass and dog point [1]: poor activity; activity on grass weeds such as crabgrass, dog point [1]: almost have no activity; efficiency, Small quinoa (Small quinoa; Postemergence spraying): 75%; efficiency, Small quinoa (Small quinoa; Pre-emergence soil treatment): 45%; herbicidal activity on broadleaf weeds targets [2]: herbicidal activity; activity on the growth of broadleaf weeds [2]: inhibitory activity; efficiency, amaranthus retroflexus (amaranthus retroflexus; Postemergence spraying): 80%; efficiency, amaranthus retroflexus (amaranthus retroflexus; Pre-emergence soil treatment): 50%; efficiency, Crabgrass (Crabgrass; Postemergence spraying): 0%; efficiency, Crabgrass (Crabgrass; Pre-emergence soil treatment): 0%; efficiency, Eclipta prostrata (Eclipta prostrata; Postemergence spraying): 80%; efficiency, Eclipta prostrata (Eclipta prostrata; Pre-emergence soil treatment): 50%; efficiency, Abutilon (Abutilon; Postemergence spraying): 80%; efficiency, Abutilon (Abutilon; Pre-emergence soil treatment): 60%; efficiency, Dog point (Dog point; Postemergence spraying): 0%; efficiency, Dog point (Dog point; Pre-emergence soil treatment): 0%; efficiency, Mustard (Mustard; Postemergence spraying): 100%; efficiency, Mustard (Mustard; Pre-emergence soil treatment): 50%
CON=C(C(=O)OC)c1ccccc1COc1cccc(-c2ccccn2)c1 [Compound 4]	30	0	30	30	0	0	50	30	30	0	0	0	–
CON=C(C(=O)OC)c1ccccc1COc1ccc(-c2ccc(C(F)(F)F)cn2)cc1 [Compound 32]	0	0	0	0	0	0	80	50	80	80	0	0	–
CON=C(C(=O)OC)c1ccccc1COc1cccc(-c2nc(Cl)c(Cl)cc2Cl)c1 [Compound 99]	70	0	50	0	50	50	60	50	60	30	30	0	activity for grass targets such as crabgrass and dog point [1]: poor activity; activity on grass weeds such as crabgrass, dog point [1]: almost have no activity; efficiency, Small quinoa (Small quinoa; Postemergence spraying): 50%; efficiency, Small quinoa (Small quinoa; Pre-emergence soil treatment): 30%; herbicidal activity on broadleaf weeds targets [2]: herbicidal activity; activity on the growth of broadleaf weeds [2]: inhibitory activity; efficiency, amaranthus retroflexus (amaranthus retroflexus; Postemergence spraying): 40%; efficiency, amaranthus retroflexus (amaranthus retroflexus; Pre-emergence soil treatment): 0%; efficiency, Crabgrass (Crabgrass; Postemergence spraying): 0%; efficiency, Crabgrass (Crabgrass; Pre-emergence soil treatment): 0%; efficiency, Eclipta prostrata (Eclipta prostrata; Postemergence spraying): 25%; efficiency, Eclipta prostrata (Eclipta prostrata; Pre-emergence soil treatment): 0%; efficiency, Abutilon (Abutilon; Postemergence spraying): 20%; efficiency, Abutilon (Abutilon; Pre-emergence soil treatment): 0%; efficiency, Dog point (Dog point; Postemergence spraying): 0%; efficiency, Dog point (Dog point; Pre-emergence soil treatment): 0%; efficiency, Mustard (Mustard; Postemergence spraying): 60%; efficiency, Mustard (Mustard; Pre-emergence soil treatment): 0%
CON=C(C(=O)OC)c1ccccc1COc1cccc(-c2c(Cl)cncc2Cl)c1 [Compound 110]	20	0	0	0	0	0	0	0	20	0	0	0	–
CON=C(C(=O)OC)c1ccccc1COc1ccc(-c2ccc(Cl)cn2)cc1 [Compound 27]	60	0	60	30	50	0	50	20	50	50	50	0	activity for grass targets such as crabgrass and dog point [1]: poor activity; activity on grass weeds such as crabgrass, dog point [1]: almost have no activity; efficiency, Small quinoa (Small quinoa; Postemergence spraying): 60%; efficiency, Small quinoa (Small quinoa; Pre-emergence soil treatment): 25%; herbicidal activity on broadleaf weeds targets [2]: herbicidal activity; activity on the growth of broadleaf weeds [2]: inhibitory activity; efficiency, amaranthus retroflexus (amaranthus retroflexus; Postemergence spraying): 80%; efficiency, amaranthus retroflexus (amaranthus retroflexus; Pre-emergence soil treatment): 50%; efficiency, Crabgrass (Crabgrass; Postemergence spraying): 0%; efficiency, Crabgrass (Crabgrass; Pre-emergence soil treatment): 0%; efficiency, Eclipta prostrata (Eclipta prostrata; Postemergence spraying): 80%; efficiency, Eclipta prostrata (Eclipta prostrata; Pre-emergence soil treatment): 0%; efficiency, Abutilon (Abutilon; Postemergence spraying): 60%; efficiency, Abutilon (Abutilon; Pre-emergence soil treatment): 0%; efficiency, Dog point (Dog point; Postemergence spraying): 0%; efficiency, Dog point (Dog point; Pre-emergence soil treatment): 0%; efficiency, Mustard (Mustard; Postemergence spraying): 80%; efficiency, Mustard (Mustard; Pre-emergence soil treatment): 30%
CON=C(C(=O)OC)c1ccccc1COc1ccc(-c2ccccn2)cc1 [Compound 7]	30	0	50	20	0	0	20	0	60	30	20	0	–
CON=C(C(=O)OC)c1ccccc1COc1cccc(-c2ccnc(Cl)c2)c1 [Compound 67]	50	0	50	0	50	50	50	50	50	30	30	0	–
CON=C(C(=O)OC)c1ccccc1COc1ccc(-c2ccnc(Cl)c2)cc1 [Compound 75]	30	0	30	30	0	0	0	0	0	0	0	0	–
CON=C(C(=O)OC)c1ccccc1COc1cccc(-c2cc(C)ccn2)c1 [Compound 84]	30	0	80	0	0	0	0	0	50	0	0	0	–
CON=C(C(=O)OC)c1ccccc1COc1cccc(-c2ncc(Br)cc2[N+](=O)[O-])c1 [Compound 104]	20	0	0	0	0	0	0	0	50	0	0	0	–
